Data as given in US20240041708A1, “DEHYDRATED SOAP AND CLEANER TABLET COMPOSITION” (HAPPY GO LUCKY LLC, priority 2022, published 2024).
“Also recorded” adds a separate entry of the source.

Columns and labels:
[1] = tested on: Candida albicans; conditions: fungus Candida albicans; cited from earlier work
[2] = tested on: environmental microbes; test: Rehydrated tablet stability testing (daily scent, clarity, particulates, pressure; pass/fail); conditions: as preservative in Comparative Examples 3 and 4
Description: The key goals for the present invention, given that it is intended to be used for bottles that will be refilled many times to reduce plastic waste, are for the rehydrated formula to: • (a) be stable once rehydrated, meaning that the solution would no discernible microbial growth over a multi-month period of time and would maintain its physical characteristics, and • (b) work within an acceptable manufacturing process (both physically and in terms of cost).
In terms of physical characteristics measured, once the test tablets had been rehydrated, several observables were tracked each day such as scent, clarity, presence of particulates and pressure.
Scent was measured by comparing the scent each day to the original scent of an initially rehydrated bottle. When microbial activity is present it can create compounds, which add a distinctly unpleasant odor to the compositions. 2 Given the sensitivity of the human nose to such compounds, this would be a clear aesthetic failure for the product even if overall microbial growth remained below a level that could be harmful or otherwise impact use.
Regarding clarity, initially rehydrated solutions are completely transparent. […]
Once the initial dissolution process is complete, a rehydrated solution should contain no free-floating particulates. The appearance of any particles within the solution was recorded and visually evaluated. […]

[3] = tested on: bacteria; test: Inhibitory effect of IPBC against bacteria tested; type: cell-based
Description: (§1) In Examples 1 and 2, the concentration of IPBC was in the 100 ppm to 160 ppm range. This range inhibits the growth of all three categories of microbes. An amount of 100 ppm is a minimum safe amount to inhibit most types of microbial growth.

[4] = tested on: fungus and yeast; test: Growth inhibition of fungus and yeast by IPBC; type: cell-based; conditions: 100 ppm to 160 ppm
Description: as §1

[5] = tested on: mold/mildew/yeast/fungi; conditions: cited from earlier work
[6] = tested on: algae; conditions: cited from earlier work
[7] = at comparable concentrations; cited from earlier work

With `O=C([O-])c1ccccc1.[Na+]` [sodium benzoate, reference compound] as the molecule, how does the MIC [1] read?
The MIC was “about 2500 ppm”.

Which “effectiveness in stability testing (preservation)” value [2] does the source give for benzalkonium chloride [BKC] here?
Its value is “somewhat effective; also recorded: better preservation than other non-IPBC-containing compositions tested”.

With iodopropynyl butylcarbamate [IPBC] as the molecule, how does the “concentration with inhibitory effect against most bacteria tested” value [3] read?
Its value is 100 ppm.

And the “inhibition of growth of fungus and yeast” value [4]?
Its value is “significantly inhibits”.

What about the “minimum inhibitory concentration (MIC)” value [5] of the same molecule?
The value was ≤ 10 ppm.

And the “minimum inhibitory concentration (MIC)” value [6]?
The value was ≤ 50 ppm.

And the MIC [1]?
Its MIC is “about 8 ppm”.

What about the comedogenicity [7] of the same molecule?
Its comedogenicity is “noncomedogenic”.
